Assay results: ChEMBL document CHEMBL1201862, “PubChem BioAssay data set” (2004)
Calls of active or inactive are those of the source.

Assays:
[1] = molecular target: T1, Cytochrome P450 1A2 (Homo sapiens, UniProt P05177);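 note: PubChem cytochrome P450 panel assay, CYP1A2 panel member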
T1 sequence (P05177 whole entry): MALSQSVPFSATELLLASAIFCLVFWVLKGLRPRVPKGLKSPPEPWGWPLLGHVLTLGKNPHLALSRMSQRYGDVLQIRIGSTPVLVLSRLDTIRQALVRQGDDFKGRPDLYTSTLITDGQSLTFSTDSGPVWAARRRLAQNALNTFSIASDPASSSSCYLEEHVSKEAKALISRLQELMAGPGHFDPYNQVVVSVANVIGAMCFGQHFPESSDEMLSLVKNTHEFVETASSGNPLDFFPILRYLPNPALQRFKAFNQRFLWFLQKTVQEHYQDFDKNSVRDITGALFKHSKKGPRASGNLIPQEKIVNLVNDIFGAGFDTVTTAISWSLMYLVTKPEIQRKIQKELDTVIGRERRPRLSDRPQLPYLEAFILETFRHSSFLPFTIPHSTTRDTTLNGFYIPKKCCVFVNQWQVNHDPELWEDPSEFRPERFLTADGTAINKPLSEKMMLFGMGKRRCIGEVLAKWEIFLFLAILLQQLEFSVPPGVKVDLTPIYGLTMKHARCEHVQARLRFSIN

[2] = molecular target: Cytochrome P450 2C9 (Homo sapiens, UniProt P11712)
[3] = molecular target: Cytochrome P450 2C19 (Homo sapiens, UniProt P33261); experiment: Cytochrome panel assay with activity outcomes. Panel member name: p450-cyp2c19 Compounds with AC50 equal or less than 10 uM are considered active; type: functional; details: read-out: AC50
[4] = molecular target: T2, Replicative DNA helicase DnaB (Mycobacterium tuberculosis, UniProt P9WMR3); experiment: DnaB intein splicing inhibitors, dose response, biochemical, cell-free fluorescence (AID 449749); type: functional
T2 sequence (P9WMR3 whole entry): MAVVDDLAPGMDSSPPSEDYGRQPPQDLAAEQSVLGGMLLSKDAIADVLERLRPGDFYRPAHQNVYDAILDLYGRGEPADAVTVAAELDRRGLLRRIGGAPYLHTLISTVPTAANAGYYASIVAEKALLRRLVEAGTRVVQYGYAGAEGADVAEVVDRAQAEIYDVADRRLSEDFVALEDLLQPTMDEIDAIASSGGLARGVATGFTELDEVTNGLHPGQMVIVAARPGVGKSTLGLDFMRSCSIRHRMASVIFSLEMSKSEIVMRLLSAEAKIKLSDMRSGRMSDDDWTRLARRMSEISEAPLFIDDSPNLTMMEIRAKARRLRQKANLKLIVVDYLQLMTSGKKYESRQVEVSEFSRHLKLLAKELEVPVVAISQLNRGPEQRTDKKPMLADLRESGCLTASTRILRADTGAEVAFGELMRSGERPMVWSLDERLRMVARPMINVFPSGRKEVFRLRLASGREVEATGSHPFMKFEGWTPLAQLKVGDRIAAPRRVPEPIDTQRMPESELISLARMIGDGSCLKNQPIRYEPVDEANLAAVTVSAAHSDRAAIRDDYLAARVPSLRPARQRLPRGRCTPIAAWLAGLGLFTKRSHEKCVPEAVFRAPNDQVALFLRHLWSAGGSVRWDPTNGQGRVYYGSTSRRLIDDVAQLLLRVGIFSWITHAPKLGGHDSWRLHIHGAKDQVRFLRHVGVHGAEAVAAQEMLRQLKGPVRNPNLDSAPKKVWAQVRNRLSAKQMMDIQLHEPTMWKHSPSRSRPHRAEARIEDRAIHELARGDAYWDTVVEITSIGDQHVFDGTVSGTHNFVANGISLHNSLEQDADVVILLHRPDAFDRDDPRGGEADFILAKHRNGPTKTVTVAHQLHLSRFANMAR

[5] = molecular target: T3, Protein RecA (Mycobacterium tuberculosis, UniProt P9WHJ3); experiment: Fluorescence Cell-Free Homogeneous Dose Retest to Identify Inhibitors of RecA-Intein Splicing Activity. [Related pubchem assays (depositor defined):AID2097, AID2223, AID489010, AID492950]; type: functional
T3 sequence (P9WHJ3 whole entry): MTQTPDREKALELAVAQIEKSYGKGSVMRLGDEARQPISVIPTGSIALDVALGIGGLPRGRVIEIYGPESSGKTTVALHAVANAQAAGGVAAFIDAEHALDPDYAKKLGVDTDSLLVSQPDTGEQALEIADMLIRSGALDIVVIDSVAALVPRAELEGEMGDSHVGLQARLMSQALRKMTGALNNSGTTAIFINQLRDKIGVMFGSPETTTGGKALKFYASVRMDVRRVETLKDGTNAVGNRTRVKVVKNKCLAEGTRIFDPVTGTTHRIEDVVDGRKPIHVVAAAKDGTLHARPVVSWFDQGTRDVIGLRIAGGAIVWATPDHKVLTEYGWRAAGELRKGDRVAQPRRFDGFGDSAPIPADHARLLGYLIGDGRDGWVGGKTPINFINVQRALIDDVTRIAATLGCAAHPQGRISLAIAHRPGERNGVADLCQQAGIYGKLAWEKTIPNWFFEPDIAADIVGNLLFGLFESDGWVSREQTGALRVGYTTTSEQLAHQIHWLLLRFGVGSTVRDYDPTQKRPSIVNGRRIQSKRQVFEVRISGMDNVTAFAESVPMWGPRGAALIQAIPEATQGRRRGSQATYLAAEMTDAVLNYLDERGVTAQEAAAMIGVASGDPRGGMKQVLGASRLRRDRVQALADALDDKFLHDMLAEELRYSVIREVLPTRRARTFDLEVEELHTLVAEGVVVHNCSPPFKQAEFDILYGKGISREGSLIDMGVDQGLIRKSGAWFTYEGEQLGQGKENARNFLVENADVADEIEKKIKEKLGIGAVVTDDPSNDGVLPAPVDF

[6] = growth suppression of beta-catenin-knockout colon cells, dose response, cell-based, HCT116, human colon tumor (AID 1045); type: functional;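 note: HCT116 colon tumor cells with beta catenin knocked out; cells exposed to compound for 60 hours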
[7] = growth suppression of PTEN-null colon cells, dose response, cell-based, HCT116 PTEN knockout (AID 1047); type: functional;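 note: HCT116 colon tumor cells with PTEN knocked out; cells exposed to compound for 60 hours before readout; potency for loss of cell viability measured by luminescence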
[8] = Luminescence Cell-Based Dose Response HTS to Identify Activators of Luciferase Translation or Activity in H4 […] Cells. [Related pubchem assays: 1829 (Project Summary), 1814 (Primary HTS)]; type: functional
[9] = Luminescence Cell-Based Dose Confirmation HTS to Identify Activators of 5'UTR Stem-Loop Driven Alpha-Synuclein mRNA Translation in H4 Neuroglioblastoma Cells. [Related pubchem assays: 1829 (Project Summary), 1814 (Primary HTS)]; type: functional
[10] = molecular target: T4, Heat shock factor protein 1 (Mus musculus, UniProt P38532); experiment: HSF1 potentiators in luciferase reporter cells, confirmation, cell-based, NIH3T3, luminescence, dose retest (AID 435004); type: functional;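 note: stress induced by proteasome inhibitor MG132 added 30 min after compound; luciferase reporter driven by HSF1 response element in NIH3T3 cells; actives raise luminescence as potentiators of the MG132 stress response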
T4 sequence (P38532 whole entry): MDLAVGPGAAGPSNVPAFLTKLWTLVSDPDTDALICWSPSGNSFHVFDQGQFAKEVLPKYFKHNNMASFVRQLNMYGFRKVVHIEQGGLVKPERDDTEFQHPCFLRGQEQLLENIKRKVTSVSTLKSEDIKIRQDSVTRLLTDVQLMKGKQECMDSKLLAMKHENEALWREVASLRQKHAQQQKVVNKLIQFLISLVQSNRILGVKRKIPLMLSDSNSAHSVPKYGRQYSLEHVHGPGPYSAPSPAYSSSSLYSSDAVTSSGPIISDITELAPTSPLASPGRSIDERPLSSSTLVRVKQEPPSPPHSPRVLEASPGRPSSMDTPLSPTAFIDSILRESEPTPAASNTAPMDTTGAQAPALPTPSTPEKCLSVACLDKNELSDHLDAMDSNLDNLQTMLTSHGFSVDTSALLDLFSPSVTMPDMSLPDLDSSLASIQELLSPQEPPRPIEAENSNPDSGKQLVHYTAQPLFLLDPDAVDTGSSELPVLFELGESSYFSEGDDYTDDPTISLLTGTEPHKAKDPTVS

[11] = molecular target: T5, Streptokinase A (Streptococcus pyogenes serotype M1, UniProt P10520); experiment: S. pyogenes streptokinase expression inhibitors, potency, dose response, plasminogen activation absorbance, OD405 (AID 1914); type: functional, Streptococcus pyogenes M1 GAS;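 note: secreted streptokinase activity via plasminogen activation per viability signal from cell pellet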
T5 sequence (P10520 whole entry): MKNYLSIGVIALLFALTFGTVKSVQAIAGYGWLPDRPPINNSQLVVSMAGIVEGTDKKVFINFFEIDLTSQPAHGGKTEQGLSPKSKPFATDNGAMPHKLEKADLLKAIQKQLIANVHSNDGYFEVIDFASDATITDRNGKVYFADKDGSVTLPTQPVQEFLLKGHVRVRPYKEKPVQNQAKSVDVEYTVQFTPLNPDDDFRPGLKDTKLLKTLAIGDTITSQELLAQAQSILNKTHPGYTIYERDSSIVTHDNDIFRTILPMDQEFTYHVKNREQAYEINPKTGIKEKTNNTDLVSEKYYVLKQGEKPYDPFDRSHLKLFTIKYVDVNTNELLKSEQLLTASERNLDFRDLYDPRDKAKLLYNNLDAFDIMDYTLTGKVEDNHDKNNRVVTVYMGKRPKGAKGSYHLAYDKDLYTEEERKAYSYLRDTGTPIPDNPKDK

[12] = test system: Streptococcus sp. 'group A'; experiment: growth inhibition of control SK(-) GAS strain, dose response, counter-screen for streptokinase expression inhibitor project, luminescence, kanamycin, BacTiterGlo, confirmation (AID 1900); type: functional, organism-based
[13] = molecular target: Cytochrome P450 3A4 (Homo sapiens, UniProt P08684);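 note: CYP3A4 tested as one member of a cytochrome P450 panel screen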
[14] = test system: Streptococcus; experiment: Group A Streptococcus viability loss, dose response, counter-screen for streptokinase expression inhibitor project, luminescence, BacTiterGlo (AID 1915); type: functional, organism-based;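 note: potency for reduction of bacterial viability or growth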
[15] = test system: H4; experiment: Luminescence Cell-Based Dose Response HTS to Identify Activators of 5'UTR Stem-Loop Driven Prion Protein mRNA Translation in H4 Neuroglioblastoma Cells. [Related pubchem assays: 1829 (Project Summary), 1814 (Primary HTS)]; type: functional; details: Homo sapiens
[16] = molecular target: T4, Heat shock factor protein 1; experiment: inhibition of MG132-induced HSE-luciferase signal, confirmation, cell-based, NIH3T3, luminescence, dose retest (AID 2382); type: functional;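 note: NIH3T3 fibroblasts with HSF1-driven luciferase reporter stressed by proteasome inhibitor MG132; luminescence from HSF1-driven luciferase expression after 8 hours of MG132 stress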

Chain of Cytochrome P450 2C19 (P33261 whole entry): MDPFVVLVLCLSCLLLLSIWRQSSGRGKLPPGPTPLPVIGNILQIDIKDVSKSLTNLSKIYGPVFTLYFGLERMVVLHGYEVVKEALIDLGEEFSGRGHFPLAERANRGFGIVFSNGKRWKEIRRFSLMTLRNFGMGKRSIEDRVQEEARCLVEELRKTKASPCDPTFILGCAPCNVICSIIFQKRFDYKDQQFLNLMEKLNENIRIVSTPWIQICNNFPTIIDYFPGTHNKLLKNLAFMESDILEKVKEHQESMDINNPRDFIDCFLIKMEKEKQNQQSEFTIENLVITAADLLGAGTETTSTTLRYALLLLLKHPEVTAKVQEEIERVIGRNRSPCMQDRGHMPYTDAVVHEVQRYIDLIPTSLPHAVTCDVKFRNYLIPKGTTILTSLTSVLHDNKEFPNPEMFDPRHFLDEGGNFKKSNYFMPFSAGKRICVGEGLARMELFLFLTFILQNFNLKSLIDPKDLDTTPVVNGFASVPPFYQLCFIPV
Chain of Cytochrome P450 2C9 (P11712 whole entry): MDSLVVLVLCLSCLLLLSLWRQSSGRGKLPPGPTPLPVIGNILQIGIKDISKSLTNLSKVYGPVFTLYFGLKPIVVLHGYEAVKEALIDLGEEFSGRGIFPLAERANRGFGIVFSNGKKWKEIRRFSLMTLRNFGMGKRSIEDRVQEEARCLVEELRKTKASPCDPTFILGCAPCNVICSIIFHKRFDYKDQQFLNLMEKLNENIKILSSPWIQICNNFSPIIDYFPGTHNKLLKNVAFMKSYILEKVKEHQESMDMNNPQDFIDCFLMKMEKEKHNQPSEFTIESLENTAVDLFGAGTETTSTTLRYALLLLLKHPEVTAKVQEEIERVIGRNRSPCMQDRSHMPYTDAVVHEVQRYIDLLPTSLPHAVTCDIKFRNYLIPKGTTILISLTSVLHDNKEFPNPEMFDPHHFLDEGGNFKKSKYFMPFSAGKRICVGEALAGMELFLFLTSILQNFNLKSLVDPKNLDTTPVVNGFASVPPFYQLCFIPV
Chain of Cytochrome P450 3A4 (P08684 whole entry): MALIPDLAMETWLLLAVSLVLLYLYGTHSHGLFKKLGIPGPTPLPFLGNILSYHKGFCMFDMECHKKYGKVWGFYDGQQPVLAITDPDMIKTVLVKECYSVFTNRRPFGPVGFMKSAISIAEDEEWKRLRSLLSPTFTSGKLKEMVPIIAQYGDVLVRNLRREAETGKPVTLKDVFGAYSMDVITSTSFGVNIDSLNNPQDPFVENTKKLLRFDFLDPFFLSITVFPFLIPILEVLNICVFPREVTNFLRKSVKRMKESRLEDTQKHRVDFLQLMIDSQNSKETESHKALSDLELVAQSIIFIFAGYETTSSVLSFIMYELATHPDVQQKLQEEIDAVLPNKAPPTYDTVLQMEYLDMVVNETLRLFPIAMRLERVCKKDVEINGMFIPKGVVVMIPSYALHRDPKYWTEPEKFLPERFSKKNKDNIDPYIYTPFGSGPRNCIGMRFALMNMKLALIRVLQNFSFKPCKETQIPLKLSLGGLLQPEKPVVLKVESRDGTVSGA

## Cc1nn(C)cc1C(=O)NN=C(S)Nc1ccccc1
[1]
  AC50: 15.8 µM (inconclusive)
[2]
  AC50: 39.8 µM (inconclusive)
[3]
  AC50: 22.4 µM (inconclusive)

## COc1ccc(NS(=O)(=O)c2ccc(NC(=O)c3cnn4c(C(F)F)cc(-c5ccc(C)cc5)nc34)cc2)cc1
[1]
  AC50: 0.891 µM (inconclusive)
[2]
  AC50: 3.55 µM (inconclusive)
[3]
  AC50: 2.24 µM (inconclusive)

## Cc1ccc(N/C([S-])=C(/C(=O)c2ccc(F)cc2)[n+]2ccccc2)cc1
[4]
  AC50: > 380 µM (inactive)
[5]
  EC50: 69.7 µM (active)

## Cc1ccc(-c2csc(NC(=O)CSc3n[nH]c4c5ccccc5nc-4n3)n2)cc1
[6]
  EC50: 21.9 µM (active)
[7]
  EC50: 24.1 µM (active)

## Cc1ccc(Cn2ccnc2C(=O)Nc2ccccc2)cc1
[8]
  EC50: 58 µM (active)
[9]
  EC50: 30.4 µM (active)

## CCCn1c(SCc2nc(O)c3c(C)c(C)sc3n2)nc2ccccc2c1=O
[6]
  EC50: 12.5 µM (active)
[7]
  EC50: 11.8 µM (active)
[10]
  EC50: 71.9 µM (active)

## COc1cccc(-c2cc(C(F)(F)F)nc(N3CCCCC3)n2)c1
[11]
  EC50: 4.92 µM (active)
[12]
  EC50: 5.13 µM (active)
[13]
  AC50: 20 µM (inconclusive)
[2]
  AC50: 0.355 µM (inconclusive)
[14]
  EC50: 19 µM (active)

## O=C(O)c1ccc(Cn2cnc3scc(-c4ccccc4)c3c2=O)cc1
[15]
  EC50: > 120 µM (not active)
[8]
  EC50: > 120 µM (not active)
[9]
  EC50: 9.7 µM (active)

## Cn1c(SCC(=O)N2CCCCC2)nc2c3ccccc3nc-2c1O
[6]
  EC50: 35.8 µM (active)
[7]
  EC50: 22.3 µM (active)

## Cc1ccc(C(C(=O)NC2CCCC2)N(C(=O)Cc2cccs2)c2ccc3c(c2)OCCO3)cc1 (stereo not given)
[6]
  EC50: 62.8 µM (active)
[7]
  EC50: 46.5 µM (active)

## COc1ccc(C(CCN(Cc2ccc(OC)c(OC)c2)C(=O)CCl)c2ccccc2)cc1 (stereo not given)
[4]
  AC50: 1.12 µM (active)
[6]
  EC50: 3 µM (active)
[7]
  EC50: 3.07 µM (active)
[5]
  EC50: 0.269 µM (active)
[16]
  EC50: 3.19 µM (active)

## Cc1cccc(N=Nc2c[nH]nc2-c2ccco2)c1
[15]
  EC50: 73.5 µM (active)
[8]
  EC50: 14.7 µM (active)
[9]
  EC50: 29.5 µM (active)

## COCCn1c(=O)c(-c2cc(F)cc(F)c2)nc2cnc(OC)nc21
[2]
  AC50: 39.8 µM (inconclusive)
[3]
  AC50: 39.8 µM (inconclusive)

## Cc1cc(C)nc(Sc2ccc3nnnn3n2)n1
[15]
  EC50: 11.3 µM (active)
[8]
  EC50: 22.5 µM (active)
[9]
  EC50: 24.7 µM (active)

## Cc1ccccc1N(C(=O)Cc1cccs1)C(C(=O)NCC1CCCO1)c1cccnc1 (stereo not given)
[13]
  AC50: 1 µM (inconclusive)
[2]
  AC50: 22.4 µM (inconclusive)
[3]
  AC50: 28.2 µM (inconclusive)

## Cc1ccc(NC2=C(C(=O)Nc3c(C)cc(C)cc3C)C(=N)C(C(=O)Nc3ccc(OC(F)(F)F)cc3)S2)cc1 (stereo not given)
[6]
  EC50: 42.8 µM (active)
[7]
  EC50: 40 µM (active)

## CCOC(=O)C/C(C)=N/NC(=O)COc1ccccc1C
[4]
  AC50: 4.39 µM (active)
[5]
  EC50: 2.36 µM (active)

## NC(=O)CI [IODOACETAMIDE]
[1]
  AC50: 31.6 µM (inconclusive)
[2]
  AC50: 39.8 µM (inconclusive)
[3]
  AC50: 39.8 µM (inconclusive)
